According to patent US12313632B2, “Tepoxalin targeting of ABCB1 overexpressing cancers” (THE BROAD INSTITUTE, INC., priority 2018, dated 2025):
Where two headings read alike, the source gives them in different places.

What was measured:
LS1034 cells [1] = test: CellTiter-Glo cellular viability assay, killing of LS1034 cells; assay type: cell-based, human; conditions: for IC50: Homo sapiens, LS-1034
Description: (§1) Cell viability was assayed using a modified manufacturer's protocol for CellTiter-Glo® (Promega #G7573). Cells were seeded at a density of 2000 cells per well in a 96 well black, clear bottom plate (Corning #89091-012) in 100 uL total media per well. The following day different concentrations of compounds at various doses were printed in triplicate in a random well format using the Tecan D300e Digital Dispenser. After 120H, 60 μL of a 1:3 solution of CellTiterGlo reagent in 1×PBS (Corning #01018002) was added per well and allowed to incubate at RT for 10 mins. Luminescence was measured with an integration time of 0.1 s using Envision Microplates Reader (PERKIN ELMER #2105-0010). Biological replicates were averaged and normalized to vehicle control. Dose curves were generated using Graphpad Prism.

[2] = test system: barcode-tagged neoplastic cell line populations sorted by ABCB1 expression; test: PRISM multiplexed cellular viability screen, cell killing plotted against ABCB1 expression; conditions: for Phenocopy of tepoxalin activity in PRISM: tested at the same dose
Description: PRISM cell line barcoding, pooling, and screening was performed as previously described with several improvements to the original method (5). First, the lentiviral vector was modified to encode the unique barcode identifier at the end of the puromycin resistance gene. This enables barcodes to be detected using a variant of the mRNA capture and Luminex detection method developed for the L1000 gene expression assay (6). Second, a set of ten inert barcodes were spiked-in to each well of each plate after cell lysis to control for variation in PCR amplification as detailed below.
Cell viability was calculated as the ratio of nMFI to the median of the nMFI from the DMSO-treated negative controls for each cell line on each plate. Batch effects produced from variable detection and assay conditions were then removed using ComBat (8). The final viability values were calculated as the median of the batch-corrected cell viabilities from biological replicates for each cell line, compound and dose.
Measures of dose response were obtained by fitting 3-parameter logistic curves to viability values for each compound and cell line using the R package ‘drc’. Following the practice of Smirnov and Safikhani (9), viability was truncated at 1.0 and fit as a function of drug concentration according to:
High-throughput “next gen” sequencing performed upon arrayed cell populations allowed for well-by-well tracking of cell viability over time, in the presence and absence of library compounds, via barcode enumeration and deconvolution of treated and control cell line populations. Using this approach, cell viability dose-response curves were generated for each compound of the drug repurposing library, across all targeted cell lines present in the barcode-tagged neoplastic cell line “PRISM” populations.
By sorting the “PRISM” population cell lines by their respective relative levels of ABCB1 expression (as assessed by RNAseq), the cell killing profile of each drug repurposing library compound tested could be plotted against relative levels of ABCB1 expression, thereby obtaining a cell killing profile that served as a proxy for dose-response of the library compound across progressively increasing levels of ABCB1 expression.

Kuramochi-ABCB1 cells = test: Killing of native Kuramochi cells versus Kuramochi cells overexpressing ABCB1 (Kuramochi-ABCB1); assay type: cell-based, human; conditions: for Change of compound-mediated killing with overexpressed ABCB1: Kuramochi-ABCB1 versus native Kuramochi cells
Description: Cell viability was assayed using a modified manufacturer's protocol for CellTiter-Glo® (Promega #G7573). […] The following day different concentrations of compounds at various doses were printed in triplicate in a random well format using the Tecan D300e Digital Dispenser. […] Biological replicates were averaged and normalized to vehicle control. Dose curves were generated using Graphpad Prism.
Next, the consequence of ectopic ABCB1 overexpression in cells resistant to tepoxalin was evaluated.

REC1 cells = test: Expanded cell line viability comparison, killing of REC1 cells; assay type: cell-based, human; conditions: REC1 versus LS1034
Description: as §1

[3] = test system: LS1034 cells administered sg ABCB1-2; test: Viability of LS1034 cells given control sgRNA (sg GFP) or ABCB1 knockdown sgRNA (sg ABCB1-2); assay type: cell-based, human; conditions: sg ABCB1-2 compared to control sgRNA sg GFP
Description: A mixture of 3E6 cells, virus, and media with 4 μg/mL polybrene (Millipore) at a total volume of 2 mL was plated per well of a 12 well plate. Cells were centrifuged at 2000 RPM for 2 hours at 30° C. After removal from incubator, 2 mL of fresh media was added to each well and cells were allowed to incubate at 37° C. overnight. The following day cells were selected for with puromycin for 3-10 days, or until the non-infected control cell were completely non-viable.
as §1, with “Prism. […]” for “Prism.”

LS1034 cells [4] = test system: LS1034 cells
Description: (§2) Compound was incubated in naïve cell media (no cell control, or NCC) or in the presence of cells at 1 million cells/mL. The incubation was carried out in a 37° C. with 5% CO2 cell incubator with gentle plate shaking for 3 hours. Following the incubation, the NCC samples were placed on the bench until final analysis. Cell samples were centrifuged at 500×g for 5 minutes. The supernatant was removed, and the cells were washed twice with cold PBS. Cells were again centrifuged at 500×g for 5 minutes, the supernatant was removed/discarded, and cells were resuspended in 130 pL water (Honeywell, catalog #33015-1L). The entire volume was then transferred into a Covaris microTUBE plate (Covaris, catalog #220078) and sonicated on a Covaris LE220 focused-ultrasonicator. Samples were transferred to a 96wp and centrifuged at 3000×g for 15 min at 20° C. The supernatant was transferred to a new 96wp. For both the NCC and cell samples, 5 pL was transferred to a 96wp. To each sample was added 45 pL cell media, 50 pL water, and 50 pL acetonitrile containing internal standard. […]
(§3) Samples were analyzed on a UPLC-MS/MS system consisting of a Waters Acquity I-Class FTN and AB Sciex 4500 Triple Quad mass spectrometer with compounds being detected by positive mode MRM detection. […] Sample concentrations were determined using a standard curve and dilution quality control samples prepared in a surrogate matrix. […]

[5] = rat model, compared with naproxen; cited from earlier work
MDR1 [6] = biological target: T1, MDR1 (Homo sapiens, UniProt P08183); test: cell-based
T1 sequence (P08183 whole entry): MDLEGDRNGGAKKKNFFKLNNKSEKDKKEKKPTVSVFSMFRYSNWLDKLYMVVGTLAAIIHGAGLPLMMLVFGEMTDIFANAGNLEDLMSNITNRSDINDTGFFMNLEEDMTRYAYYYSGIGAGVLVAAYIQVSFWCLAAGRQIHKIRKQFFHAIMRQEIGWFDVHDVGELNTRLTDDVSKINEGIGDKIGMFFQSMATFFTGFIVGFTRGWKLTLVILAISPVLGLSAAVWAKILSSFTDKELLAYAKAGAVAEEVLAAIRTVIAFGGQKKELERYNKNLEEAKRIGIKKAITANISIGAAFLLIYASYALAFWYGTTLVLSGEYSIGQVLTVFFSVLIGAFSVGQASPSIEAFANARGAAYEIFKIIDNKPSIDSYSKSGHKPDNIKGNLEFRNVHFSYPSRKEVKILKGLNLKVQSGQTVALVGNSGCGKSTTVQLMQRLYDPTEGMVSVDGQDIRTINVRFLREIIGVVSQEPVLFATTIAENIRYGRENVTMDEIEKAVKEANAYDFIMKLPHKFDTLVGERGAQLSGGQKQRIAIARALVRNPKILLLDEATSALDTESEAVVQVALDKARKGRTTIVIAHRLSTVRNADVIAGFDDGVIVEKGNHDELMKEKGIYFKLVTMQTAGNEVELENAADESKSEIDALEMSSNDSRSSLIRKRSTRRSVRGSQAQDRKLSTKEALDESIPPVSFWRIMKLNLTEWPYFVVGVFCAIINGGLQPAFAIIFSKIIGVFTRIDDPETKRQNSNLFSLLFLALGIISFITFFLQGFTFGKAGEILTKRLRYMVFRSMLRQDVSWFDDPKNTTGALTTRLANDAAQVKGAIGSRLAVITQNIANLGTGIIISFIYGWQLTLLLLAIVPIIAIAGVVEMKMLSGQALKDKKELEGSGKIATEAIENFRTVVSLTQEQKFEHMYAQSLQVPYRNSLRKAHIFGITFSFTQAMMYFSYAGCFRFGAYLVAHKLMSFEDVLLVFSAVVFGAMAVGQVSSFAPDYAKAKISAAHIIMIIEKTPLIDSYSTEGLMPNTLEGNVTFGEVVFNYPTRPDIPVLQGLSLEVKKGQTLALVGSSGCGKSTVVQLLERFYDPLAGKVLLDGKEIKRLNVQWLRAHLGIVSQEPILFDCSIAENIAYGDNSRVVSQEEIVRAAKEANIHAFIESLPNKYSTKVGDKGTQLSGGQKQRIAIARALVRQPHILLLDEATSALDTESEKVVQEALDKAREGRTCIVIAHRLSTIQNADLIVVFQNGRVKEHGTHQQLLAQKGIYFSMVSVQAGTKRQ

MDR1 [7] = biological target: T1, MDR1; test: cell-based; remark: listed apart in the source
[8] = published pharmacokinetic studies; cited from earlier work
cyclooygenase = conditions: in vitro; cited from earlier work
LS1034 cells [9] = test: Compound cell permeability assay (LC-MS); conditions: 3 hour incubation, 20 μM, with or without ABCB1 knockout or elacridar
Description: as §2, §3

MDR1 [10] = biological target: T1, MDR1; test: P-Glycoprotein transporter cell based antagonism assay (calcein AM assay); conditions: read-out: IC50 in calcein AM assay; relies upon cell-permeability of compounds
[11] = read-out: IC50 value (absolute) in killing LS1034 cells
[12] = PRISM population, ABCB1 expression by RNAseq

## COc1cc2c(cc1OC)CN(CCc1ccc(NC(=O)c3cc(OC)c(OC)cc3NC(=O)c3cnc4ccccc4c3)cc1)CC2 [tariquidar]
LS1034 cells [1]; [11]
  IC50: > 10 µM
[2]
  Phenocopy of tepoxalin activity in PRISM: did not phenocopy tepoxalin

## CC[C@]1(O)C[C@@H]2C[N@@](CCc3c([nH]c4ccccc34)[C@@](C(=O)OC)(c3cc4c(cc3OC)N(C=O)[C@H]3[C@@](O)(C(=O)OC)[C@H](OC(C)=O)[C@]5(CC)C=CCN6CC[C@]43[C@@H]65)C2)C1 [vincristine, Vincristine]
[2]; [12]
  Cell killing profile against relative levels of ABCB1 expression: robust killing of cells that expressed low levels of ABCB1

## COc1cccc2c1C(=O)c1c(O)c3c(c(O)c1C2=O)C[C@@](O)(C(=O)CO)C[C@@H]3O[C@H]1C[C@H](N)[C@@H](O)[C@H](C)O1 [epirubicin, Epirubicin]
[2]; [12]
  Cell killing profile against relative levels of ABCB1 expression: robust killing of cells that expressed low levels of ABCB1

## COc1cccc2c1C(=O)c1c(O)c3c(c(O)c1C2=O)C[C@@](O)(C(C)=O)C[C@@H]3O[C@H]1C[C@H](N)[C@H](O)[C@H](C)O1 [daunorubicin, Daunorubicin]
[2]
  Cell killing profile against relative levels of ABCB1 expression: robust killing of cells that expressed low levels of ABCB1

## C/C=C/C[C@@H](C)C(=O)[C@H]1C(=O)N[C@@H](C(C)C)C(=O)N(C)CC(=O)N(C)[C@@H](CC(C)C)C(=O)N[C@@H](C(C)C)C(=O)N(C)[C@@H](CC(C)C)C(=O)N[C@@H](C)C(=O)N[C@H](C)C(=O)N(C)[C@@H](CC(C)C)C(=O)N(C)[C@@H](CC(C)C)C(=O)N(C)[C@@H](C(C)C)C(=O)N1C [valspodar]
LS1034 cells [1]; [11]
  IC50: > 10 µM

## Romidepsin
[2]
  Cell killing profile against relative levels of ABCB1 expression: robust killing of cells that expressed low levels of ABCB1

## COc1cccc2c1C(=O)c1c(O)c3c(c(O)c1C2=O)C[C@@](O)(C(=O)CO)C[C@@H]3O[C@H]1C[C@H](N)[C@H](O)[C@H](C)O1 [doxorubicin, Doxorubicin]
Kuramochi-ABCB1 cells; 144 hours
  Change of compound-mediated killing with overexpressed ABCB1: dampened
[2]; [12]
  Cell killing profile against relative levels of ABCB1 expression: robust killing of cells that expressed low levels of ABCB1

## O=C(C(c1ccccc1)c1ccccc1)N1CCN(CC(O)COc2cccc3ncccc23)CC1 (stereo not drawn) [dofequidar]
LS1034 cells [1]; [11]
  IC50: > 10 µM

## COc1cc2c(cc1OC)CN(CCc1ccc(NC(=O)c3cccc4c(=O)c5cccc(OC)c5[nH]c34)cc1)CC2 [elacridar]
LS1034 cells [1]; [11]
  IC50: 1.9 µM
REC1 cells
  Killing of REC1 cells compared with LS1034 cells (IC50 comparison): comparable IC50 values for REC1 killing and LS1034 killing
Kuramochi-ABCB1 cells; 144 hours
  Cell killing by the compound alone in native and ABCB1-overexpressing Kuramochi cells: only modest cell killing
[2]
  Phenocopy of tepoxalin activity in PRISM: did not phenocopy tepoxalin

## CC(=O)O[C@@]12CO[C@@H]1C[C@H](O)[C@@]1(C)C(=O)[C@H](O)C3=C(C)[C@@H](OC(=O)[C@H](O)[C@@H](NC(=O)OC(C)(C)C)c4ccccc4)C[C@@](O)([C@@H](OC(=O)c4ccccc4)[C@H]21)C3(C)C [docetaxel, Docetaxel]
[2]; [12]
  Cell killing profile against relative levels of ABCB1 expression: robust killing of cells that expressed low levels of ABCB1

## COc1ccc(-n2nc(CCC(=O)N(C)O)cc2-c2ccc(Cl)cc2)cc1 [tepoxalin]
LS1034 cells [1]; [11]
  IC50: 7.8 µM
LS1034 cells [1]; LS1034, 120H, co-treatment with the MDR1 inhibitor elacridar across dose ranges
  Effect of elacridar co-treatment on killing of LS1034 cells: rescued
REC1 cells
  Killing of REC1 cells compared with LS1034 cells (IC50 comparison): more robust killing of REC1 cells than LS1034 cells
[3]
  Effect of sg ABCB1-2 on compound-mediated killing of LS1034 cells: effectively blocked
Kuramochi-ABCB1 cells; 144 hours
  Change of compound-mediated killing with overexpressed ABCB1: enhanced
Kuramochi-ABCB1 cells; combination with 2 μM elacridar, Kuramochi versus Kuramochi-ABCB1, 144 hours
  Dose-response cell killing curves in combination with 2 μM elacridar, across ABCB1 expression/overexpression: impervious (did not shift)
LS1034 cells [4]
  Cell permeability: readily cell permeable
[5]
  Gastric ulcers at an effective dose: fewer gastric ulcers in a rat model than naproxen
MDR1 [6]
  IC50: 12 µM
MDR1 [7]
  IC50: 32 µM
[2]; [12]
  Cell killing profile against relative levels of ABCB1 expression: progressively enhanced killing of cell lines in positive correlation with increasing levels of ABCB1

## CC(=O)[C@]1(O)Cc2c(O)c3c(c(O)c2[C@@H](O[C@H]2C[C@H](N)[C@H](O)[C@H](C)O2)C1)C(=O)c1ccccc1C3=O [idarubicin, Idarubicin]
[2]; [12]
  Cell killing profile against relative levels of ABCB1 expression: robust killing of cells that expressed low levels of ABCB1

## CC(=O)O[C@H]1C(=O)[C@@]2(C)[C@H]([C@H](OC(=O)c3ccccc3)[C@]3(O)C[C@H](OC(=O)[C@H](O)[C@@H](NC(=O)c4ccccc4)c4ccccc4)C(C)=C1C3(C)C)[C@]1(OC(C)=O)CO[C@@H]1C[C@@H]2O [paclitaxel, Paclitaxel]
LS1034 cells [1]; read-out: IC50 in killing LS1034 cells
  IC50: 0.165 µM
REC1 cells
  Killing of REC1 cells compared with LS1034 cells (IC50 comparison): more robust killing of REC1 cells than LS1034 cells
Kuramochi-ABCB1 cells; 144 hours
  Change of compound-mediated killing with overexpressed ABCB1: dampened

## O[C@@H](COc1cccc2ncccc12)CN1CCN([C@@H]2c3ccccc3[C@@H]3[C@H](c4ccccc42)C3(F)F)CC1 [zosuquidar]
LS1034 cells [1]; [11]
  IC50: > 10 µM

## CC(C)C[C@H](NC(=O)[C@H](CCc1ccccc1)NC(=O)CN1CCOCC1)C(=O)N[C@@H](Cc1ccccc1)C(=O)N[C@@H](CC(C)C)C(=O)[C@@]1(C)CO1 [carfilzomib, Carfilzomib]
[2]; [12]
  Cell killing profile against relative levels of ABCB1 expression: robust killing of cells that expressed low levels of ABCB1

## COc1ccc(-n2nc(CCC(=O)O)cc2-c2ccc(Cl)cc2)cc1 [RWJ20142]
LS1034 cells [1]; LS1034 cells
  Viability of treated LS1034 cells: no decrease in viability
[8]
  Maximal plasma concentration relative to parent compound: higher maximal plasma concentration than the parent compound
cyclooygenase
  Activity against cyclooxygenase: active
LS1034 cells [9]
  Cell permeability: cell impermeability
MDR1 [10]
  IC50: > 100 µM

## Vinorelbine
[2]; [12]
  Cell killing profile against relative levels of ABCB1 expression: robust killing of cells that expressed low levels of ABCB1

## C/C(=C\c1csc(C)n1)[C@@H]1C[C@@H]2O[C@]2(C)CCC[C@H](C)[C@H](O)[C@@H](C)C(=O)C(C)(C)[C@@H](O)CC(=O)N1 [ixabepilone, Ixabepilone]
[2]
  Cell killing profile against relative levels of ABCB1 expression: robust killing of cells that expressed low levels of ABCB1
